Test results: patent publication US20110077251A1, “NOVEL 17 BETA LUPANE DERIVATIVES” (priority 2009, published 2011)
pIC50: −log10 of the molar value.

System: HIVIIIB
Experiment: HIV-1 replication in MT2 cell line with 30% human serum (RT activity in supernatant)
Format: cell-based
Conditions: Human immunodeficiency virus 1, 120 h, MT2 cells, day 5 after infection, average if tested more than once, read-out: MT2 (HIVIIIB) with human serum IC50 range
Protocol: HIV-1 Replication in MT2 cell line with and without 30% human serum: The cells are infected at a Multiciplicity of Infection (MOI) of 0.5 for 3 h and then washed twice with complete media to remove residual virus. Cells are then resuspended at 0.5×10^6/ml in complete medium (RPMI, 10% FBS, 1% sodium pyruvate), and seeded into 96-well plates (6.25×10^4/well). The cells are cultured in the presence or absence of various concentrations of test compounds in serial dilutions for 3 days at 37° C. The test compounds are serially diluted in complete medium supplemented or not with 30% human serum. After 3 days, 100 μL of cultured medium with cells are replaced with 120 μL of freshly diluted test compounds in complete medium containing or not 30% Human serum. The level of HIV-1 replication is determined at days 5 after infection by the presence of viral RT activity in harvested supernatant fluid. The IC50 values for the virus replication are determined by using GRAPHPAD PRISM software.
The IC50 of the compounds tested in accordance with the HIV replication activity assay MT2 (HIVIIIB) with or without human serum are represented in Table 6.

C=C(C)[C@@H]1CC[C@]2(NC(=O)Nc3ccc(F)cc3)CC[C@]3(C)[C@H](CC[C@@H]4[C@@]5(C)CC[C@H](OC(=O)CC(C)(C)C(=O)O)C(C)(C)[C@@H]5CC[C@]43C)[C@@H]12 [Cpd 11-17, 3β-O-(3′,3′-Dimethylsuccinyl)-17β-(N′-4-fluorophenyl-ureido)-28-norlup-20(29)-ene]
pIC50: > 6.70

C=C(C)[C@@H]1CC[C@]2(NC(=O)NC3CCC(F)(F)CC3)CC[C@]3(C)[C@H](CC[C@@H]4[C@@]5(C)CC[C@H](OC(=O)CC(C)(C)C(=O)O)C(C)(C)[C@@H]5CC[C@]43C)[C@@H]12 [Cpd 11-25, 3β-O-(3′,3′-Dimethylsuccinyl)-17β-(N′-4,4-difluorocyclohexyl-ureido)-28-norlup-20(29)-ene]
pIC50: > 6.70

C=C(C)[C@@H]1CC[C@]2(NC(=O)NCC(C)C)CC[C@]3(C)[C@H](CC[C@@H]4[C@@]5(C)CC[C@H](OC(=O)CC(C)(C)C(=O)O)C(C)(C)[C@@H]5CC[C@]43C)[C@@H]12 [Cpd 11-24, 3β-O-(3′,3′-Dimethylsuccinyl)-17β-(N′-isobutylureido)-28-norlup-20(29)-ene]
pIC50: > 6.70

C=C(C)[C@@H]1CC[C@]2(NC(=O)Nc3ccccc3)CC[C@]3(C)[C@H](CC[C@@H]4[C@@]5(C)CC[C@H](OC(=O)CC(C)(C)C(=O)O)C(C)(C)[C@@H]5CC[C@]43C)[C@@H]12 [Cpd 11-12, 3β-O-(3′,3′-Dimethylsuccinyl)-17β-(N′-phenyl-ureido)-28-norlup-20(29)-ene]
pIC50: > 6.70

C=C(C)[C@@H]1CC[C@]2(NC(=O)Nc3nccs3)CC[C@]3(C)[C@H](CC[C@@H]4[C@@]5(C)CC[C@H](OC(=O)CC(C)(C)C(=O)O)C(C)(C)[C@@H]5CC[C@]43C)[C@@H]12 [Cpd 11-19, 3β-O-(3′,3′-Dimethylsuccinyl)-17β-(N′-thiazol-2-yl-ureido)-28-norlup-20(29)-ene]
pIC50: > 6.70

C=C(C)[C@@H]1CC[C@]2(N)CC[C@]3(C)[C@H](CC[C@@H]4[C@@]5(C)CC[C@H](OC(=O)[C@H]6CCC[C@@H](C(=O)O)C6)C(C)(C)[C@@H]5CC[C@]43C)[C@@H]12 [Cpd 9-3, 3β-O-(cis-Cyclohexane-3′-carboxylic acid-1′-carboxyl)-17β-amino-28-norlup-20(29)-ene]
pIC50: > 6.70

C=C(C)[C@@H]1CC[C@]2(NC(=O)N[C@H](C)c3ccccc3)CC[C@]3(C)[C@H](CC[C@@H]4[C@@]5(C)CC[C@H](OC(=O)CC(C)(C)C(=O)O)C(C)(C)[C@@H]5CC[C@]43C)[C@@H]12 [Cpd 11-27, 3β-O-(3′,3′-Dimethylsuccinyl)-17β-(N′-(R)-1-phenyl-ethyl-ureido)-28-norlup-20(29)-ene]
pIC50: > 6.70

C=C(C)[C@@H]1CC[C@]2(NC(=O)NC(C)C)CC[C@]3(C)[C@H](CC[C@@H]4[C@@]5(C)CC[C@H](OC(=O)CC(C)(C)C(=O)O)C(C)(C)[C@@H]5CC[C@]43C)[C@@H]12 [Cpd 11-16, 3β-O-(3′,3′-Dimethylsuccinyl)-17β-(N′-isopropyl-ureido)-28-norlup-20(29)-ene]
pIC50: 6.00 to 6.70

C=C(C)[C@@H]1CC[C@]2(NC(=O)c3ccncc3)CC[C@]3(C)[C@H](CC[C@@H]4[C@@]5(C)CC[C@H](OC(=O)[C@H]6CCC[C@@H](C(=O)O)C6)C(C)(C)[C@@H]5CC[C@]43C)[C@@H]12 [Cpd 13-15, 3β-O-(cis-Cyclohexane-3′-carboxylic acid-1′-carboxyl)-17β-(pyridin-4-ylcarbonyl)-amino-28-norlup-20(29)-ene]
pIC50: < 6.00

C=C(C)[C@@H]1CC[C@]2(NC(=O)Nc3nnc(C)o3)CC[C@]3(C)[C@H](CC[C@@H]4[C@@]5(C)CC[C@H](OC(=O)CC(C)(C)C(=O)O)C(C)(C)[C@@H]5CC[C@]43C)[C@@H]12 [Cpd 11-15, 3β-O-(3′,3′-Dimethylsuccinyl)-17β-[3-(5-methyl-[1,3,4]oxadiazol-2-yl)-ureido]-28-norlup-20(29)-ene]
pIC50: > 6.70
